The record followed here is PMC7185459 (Antiviral Research, 2015).

The structures appear in SMILES notation. Read-outs that look alike come from different tables or passages of the source. Where only a bound is given, the exact number is not on record here.

The test system of data set [1] is hRSV strain Long. Conditions: HEp-2 cells.
Data set [2] relates to hRSV strain Long. The data set is described as follows: microbe, parasite or virus in culture. Particulars: human respiratory syncytial virus, HEp-2, 96 h.
The test system of data set [3] is SRI 29365-resistant mutant hRSV (G protein A63V). The format is cell-based, Human respiratory syncytial virus.
Another data set deals with human metapneumovirus. The data set is described as follows: In vitro CPE assay, human metapneumovirus. It counts as cell-based.
A further data set relates to Nipah virus. It counts as cell-based.
The test system of data set [4] is Venezuelan equine encephalitis virus. It counts as cell-based.
For another data set, the system named is Dengue 2 virus. The data set is described as follows: In vitro CPE assay, Dengue 2 virus. It counts as cell-based.
The test system of the next data set is human influenza virus. The data set is described as follows: In vitro CPE assay, human influenza virus. The format is cell-based.
A further data set relates to SARS CoV. It counts as cell-based.
The subject of the next data set is RSV/A/Tracy. The format is in vivo. Particulars: cotton rat, intraperitoneal at -1, +6, +24 h, vs vehicle, day +4.
The test system of data set [5] is hRSV strain Long. Conditions: A549 cells.
Data set [6] can be described thus: physchem.
Data set [7] can be described thus: physchem. The source holds these as a separate data set.
Data set [8] relates to hRSV strain Long. The data set is described as follows: microbe, parasite or virus in culture. Conditions: human respiratory syncytial virus, A549.

For the molecule `c1csc(-c2nn3c(Cn4cnc5ccccc54)nnc3s2)c1` [Compound 1, 1-[6-(2-thienyl)[1,2,4]triazolo[3,4-b][1,3,4]thiadiazol-3-yl]methyl-1H-benzimidazole], the “SI (CC50/EC50)” value in the data set with hRSV strain Long [1] came to 391. Further, in the data set on hRSV strain Long [2], it took 230 nM to reach a half-maximal effect (EC50).

Regarding `c1coc(-c2nn3c(Cn4cnc5ccccc54)nnc3s2)c1` [SRI 29365, 1-[6-(2-furyl)[1,2,4]triazolo[3,4-b][1,3,4]thiadiazol-3-yl]methyl-1H-benzimidazole], in [3], the “resistance of mutant virus relative to wt virus EC50” value is recorded as above 100 fold. Further, the “reduction in CPE due to antiviral activity” value (with human metapneumovirus; in the data set on Nipah virus; in data set [4]; in the data set on Dengue 2 virus; in the data set with human influenza virus; in the data set with SARS CoV) was “No significant reduction in CPE” throughout. The body weight result in the data set on RSV/A/Tracy is given as “no significant difference”. In the data set with RSV/A/Tracy, the lung lobe weight result is “no significant difference”. Moreover, the results for the “SI (CC50/EC50)” value in the data set on hRSV strain Long [1] (listed as 2) and in the data set with hRSV strain Long [5] were 83 and above 83, respectively. Besides, the solubility – broadly, the concentration that dissolves in the medium under given conditions – in “physchem [6]” is below 400 µM. The half-life (commonly the time in which the quantity being followed falls by half) in the data set “physchem [7]” was above 60 h. Further, the EC50 (in general, the concentration at which the effect is half-maximal) in the data set on hRSV strain Long [8] was 1200 nM.
